# Data published in ChEMBL document CHEMBL4330114 (Bioorg Med Chem, 2019).
# Tested on: Human immunodeficiency virus 1
# Test: Antiviral activity against wild type HIV1 3B infected in human MT4 cells assessed as inhibition of virus-induced cytopathic effect after 5 days by MTT assay
# Assay type: functional, organism-based
# Conditions: Human immunodeficiency virus 1, 3B, MT4, 120 h
row,Structure (SMILES),EC50 [µM]
1,Nc1ccn([C@@H]2CS[C@H](CO)O2)c(=O)n1 [LAMIVUDINE],12.8
2,N#Cc1cc(Cl)cc(Oc2c(C(F)(F)F)ccn(CC(=O)Nc3ccc([N+](=O)[O-])cc3)c2=O)c1,1.4
3,N#Cc1cc(Cl)cc(Oc2c(C(F)(F)F)ccn(CC(=O)Nc3ccncc3)c2=O)c1,32.4
4,N#Cc1cc(Cl)cc(Oc2c(C(F)(F)F)ccn(CC(=O)Nc3ccn[nH]3)c2=O)c1,6.34
5,N#Cc1cc(Cl)cc(Oc2c(C(F)(F)F)ccn(CC(=O)Nc3ccc(Br)cc3)c2=O)c1,> 87.9
6,N#Cc1cc(Cl)cc(Oc2c(C(F)(F)F)ccn(CC(=O)Nc3ccc(F)cc3)c2=O)c1,188
7,O=C1Nc2ccc(Cl)cc2[C@@](C#CC2CC2)(C(F)(F)F)O1 [EFAVIRENZ],0.007
8,N#Cc1cc(Cl)cc(Oc2c(C(F)(F)F)ccn(CC(=O)Nc3cnccn3)c2=O)c1,29.4
9,N#Cc1cc(Cl)cc(Oc2c(C(F)(F)F)ccn(CC(=O)Nc3cccnc3)c2=O)c1,> 111

# Tested on: Human immunodeficiency virus 1
# Test: Antiviral activity against HIV1 RES056 containing reverse transcriptase K103N + Y181C mutant infected in human MT4 cells assessed as inhibition of virus-induced cytopathic effect after 5 days by MTT assay
# Assay type: functional, organism-based
# Conditions: Human immunodeficiency virus 1, RES056, MT4, 120 h
row,Structure (SMILES),EC50 [µM]
1,Nc1ccn([C@@H]2CS[C@H](CO)O2)c(=O)n1 [LAMIVUDINE],7.77
2,N#Cc1cc(Cl)cc(Oc2c(C(F)(F)F)ccn(CC(=O)Nc3ccc([N+](=O)[O-])cc3)c2=O)c1,> 254
3,N#Cc1cc(Cl)cc(Oc2c(C(F)(F)F)ccn(CC(=O)Nc3ccncc3)c2=O)c1,> 133
4,N#Cc1cc(Cl)cc(Oc2c(C(F)(F)F)ccn(CC(=O)Nc3ccn[nH]3)c2=O)c1,> 41.9
5,N#Cc1cc(Cl)cc(Oc2c(C(F)(F)F)ccn(CC(=O)Nc3ccc(Br)cc3)c2=O)c1,> 87.9
6,N#Cc1cc(Cl)cc(Oc2c(C(F)(F)F)ccn(CC(=O)Nc3ccc(F)cc3)c2=O)c1,> 269
7,O=C1Nc2ccc(Cl)cc2[C@@](C#CC2CC2)(C(F)(F)F)O1 [EFAVIRENZ],0.244
8,N#Cc1cc(Cl)cc(Oc2c(C(F)(F)F)ccn(CC(=O)Nc3cnccn3)c2=O)c1,> 183
9,N#Cc1cc(Cl)cc(Oc2c(C(F)(F)F)ccn(CC(=O)Nc3cccnc3)c2=O)c1,> 111

# Tested on: not listed separately
# Test: Cytotoxicity against mock-infected human MT4 cells assessed as reduction in cell viability after 5 days by MTT assay
# Assay type: cell-based
# Conditions: not given
row,Structure (SMILES),CC50 at 120 h [µM]
1,Nc1ccn([C@@H]2CS[C@H](CO)O2)c(=O)n1 [LAMIVUDINE],> 87.3
2,N#Cc1cc(Cl)cc(Oc2c(C(F)(F)F)ccn(CC(=O)Nc3ccc([N+](=O)[O-])cc3)c2=O)c1,> 254
3,N#Cc1cc(Cl)cc(Oc2c(C(F)(F)F)ccn(CC(=O)Nc3ccncc3)c2=O)c1,133
4,N#Cc1cc(Cl)cc(Oc2c(C(F)(F)F)ccn(CC(=O)Nc3ccn[nH]3)c2=O)c1,≥ 41.9
5,N#Cc1cc(Cl)cc(Oc2c(C(F)(F)F)ccn(CC(=O)Nc3ccc(Br)cc3)c2=O)c1,87.9
6,N#Cc1cc(Cl)cc(Oc2c(C(F)(F)F)ccn(CC(=O)Nc3ccc(F)cc3)c2=O)c1,> 269
7,O=C1Nc2ccc(Cl)cc2[C@@](C#CC2CC2)(C(F)(F)F)O1 [EFAVIRENZ],> 3.16
8,N#Cc1cc(Cl)cc(Oc2c(C(F)(F)F)ccn(CC(=O)Nc3cnccn3)c2=O)c1,≥ 183
9,N#Cc1cc(Cl)cc(Oc2c(C(F)(F)F)ccn(CC(=O)Nc3cccnc3)c2=O)c1,111

# Tested on: not listed separately
# Test: Selectivity index, ratio of CC50 for mock-infected human MT4 cells to EC50 for wild type HIV1 3B infected in human MT4 cells
# Assay type: toxicity, cell-based
# Conditions: read-out: Selectivity Index
row,Structure (SMILES),selectivity ratio
1,Nc1ccn([C@@H]2CS[C@H](CO)O2)c(=O)n1 [LAMIVUDINE],> 7
2,N#Cc1cc(Cl)cc(Oc2c(C(F)(F)F)ccn(CC(=O)Nc3ccc([N+](=O)[O-])cc3)c2=O)c1,> 181
3,N#Cc1cc(Cl)cc(Oc2c(C(F)(F)F)ccn(CC(=O)Nc3ccncc3)c2=O)c1,4
4,N#Cc1cc(Cl)cc(Oc2c(C(F)(F)F)ccn(CC(=O)Nc3ccn[nH]3)c2=O)c1,≥ 7
5,N#Cc1cc(Cl)cc(Oc2c(C(F)(F)F)ccn(CC(=O)Nc3ccc(Br)cc3)c2=O)c1,< 1
6,N#Cc1cc(Cl)cc(Oc2c(C(F)(F)F)ccn(CC(=O)Nc3ccc(F)cc3)c2=O)c1,> 1
7,N#Cc1cc(Cl)cc(Oc2c(C(F)(F)F)ccn(CC(=O)Nc3cnccn3)c2=O)c1,≥ 6
8,N#Cc1cc(Cl)cc(Oc2c(C(F)(F)F)ccn(CC(=O)Nc3cccnc3)c2=O)c1,< 1

# Tested on: not listed separately
# Test: Selectivity index, ratio of CC50 for mock-infected human MT4 cells to EC50 for HIV1 RES056 RES056 containing reverse transcriptase K103N + Y181C mutant infected in human MT4 cells
# Assay type: toxicity, cell-based
# Conditions: read-out: Selectivity Index
row,Structure (SMILES),selectivity ratio
1,Nc1ccn([C@@H]2CS[C@H](CO)O2)c(=O)n1 [LAMIVUDINE],> 11
2,N#Cc1cc(Cl)cc(Oc2c(C(F)(F)F)ccn(CC(=O)Nc3ccc([N+](=O)[O-])cc3)c2=O)c1,1
3,N#Cc1cc(Cl)cc(Oc2c(C(F)(F)F)ccn(CC(=O)Nc3ccncc3)c2=O)c1,< 1
4,N#Cc1cc(Cl)cc(Oc2c(C(F)(F)F)ccn(CC(=O)Nc3ccn[nH]3)c2=O)c1,1
5,N#Cc1cc(Cl)cc(Oc2c(C(F)(F)F)ccn(CC(=O)Nc3ccc(Br)cc3)c2=O)c1,< 1
6,N#Cc1cc(Cl)cc(Oc2c(C(F)(F)F)ccn(CC(=O)Nc3ccc(F)cc3)c2=O)c1,1
7,N#Cc1cc(Cl)cc(Oc2c(C(F)(F)F)ccn(CC(=O)Nc3cnccn3)c2=O)c1,1
8,N#Cc1cc(Cl)cc(Oc2c(C(F)(F)F)ccn(CC(=O)Nc3cccnc3)c2=O)c1,< 1

# Tested on: not listed separately
# Test: Selectivity index, ratio of CC50 for mock-infected human MT4 cells to EC50 for HIV2 ROD infected in human MT4 cells
# Assay type: toxicity, cell-based
# Conditions: read-out: Selectivity Index
row,Structure (SMILES),selectivity ratio
1,N#Cc1cc(Cl)cc(Oc2c(C(F)(F)F)ccn(CC(=O)Nc3ccc([N+](=O)[O-])cc3)c2=O)c1,> 2
2,N#Cc1cc(Cl)cc(Oc2c(C(F)(F)F)ccn(CC(=O)Nc3ccncc3)c2=O)c1,< 1
3,N#Cc1cc(Cl)cc(Oc2c(C(F)(F)F)ccn(CC(=O)Nc3ccn[nH]3)c2=O)c1,1
4,N#Cc1cc(Cl)cc(Oc2c(C(F)(F)F)ccn(CC(=O)Nc3ccc(Br)cc3)c2=O)c1,< 1
5,N#Cc1cc(Cl)cc(Oc2c(C(F)(F)F)ccn(CC(=O)Nc3ccc(F)cc3)c2=O)c1,1
6,N#Cc1cc(Cl)cc(Oc2c(C(F)(F)F)ccn(CC(=O)Nc3cnccn3)c2=O)c1,1
7,N#Cc1cc(Cl)cc(Oc2c(C(F)(F)F)ccn(CC(=O)Nc3cccnc3)c2=O)c1,< 1

# Target: Human immunodeficiency virus type 1 reverse transcriptase (Human immunodeficiency virus 1, UniProt Q72547)
# Test: Inhibition of recombinant wild type HIV1 reverse transcriptase assessed as reduction in biotin-dUTP incorporation using poly(A)/oligo(dT)15 as template/primer after 1 hr by ELISA
# Conditions: not given
row,Structure (SMILES),IC50 [µM]
1,N#Cc1cc(Cl)cc(Oc2c(C(F)(F)F)ccn(CC(=O)Nc3ccc([N+](=O)[O-])cc3)c2=O)c1,1.27
2,N#Cc1cc(Cl)cc(Oc2c(C(F)(F)F)ccn(CC(=O)Nc3ccncc3)c2=O)c1,32.5
3,N#Cc1cc(Cl)cc(Oc2c(C(F)(F)F)ccn(CC(=O)Nc3ccn[nH]3)c2=O)c1,19.4
4,N#Cc1cc(Cl)cc(Oc2c(C(F)(F)F)ccn(CC(=O)Nc3ccc(Br)cc3)c2=O)c1,92.5
5,N#Cc1cc(Cl)cc(Oc2c(C(F)(F)F)ccn(CC(=O)Nc3ccc(F)cc3)c2=O)c1,72
6,N#Cc1cc(Cl)cc(Oc2c(C(F)(F)F)ccn(CC(=O)Nc3cnccn3)c2=O)c1,63.4
7,N#Cc1cc(Cl)cc(Oc2c(C(F)(F)F)ccn(CC(=O)Nc3cccnc3)c2=O)c1,133

# Tested on: Human immunodeficiency virus 2
# Test: Antiviral activity against HIV2 ROD infected in human MT4 cells assessed as inhibition of virus-induced cytopathic effect after 5 days by MTT assay
# Conditions: Human immunodeficiency virus 2, ISOLATE ROD, MT4, 120 h
row,Structure (SMILES),EC50 [µM]
1,Nc1ccn([C@@H]2CS[C@H](CO)O2)c(=O)n1 [LAMIVUDINE],≥ 17.1
2,N#Cc1cc(Cl)cc(Oc2c(C(F)(F)F)ccn(CC(=O)Nc3ccc([N+](=O)[O-])cc3)c2=O)c1,145
3,N#Cc1cc(Cl)cc(Oc2c(C(F)(F)F)ccn(CC(=O)Nc3ccncc3)c2=O)c1,> 133
4,N#Cc1cc(Cl)cc(Oc2c(C(F)(F)F)ccn(CC(=O)Nc3ccn[nH]3)c2=O)c1,134
5,N#Cc1cc(Cl)cc(Oc2c(C(F)(F)F)ccn(CC(=O)Nc3ccc(Br)cc3)c2=O)c1,> 87.9
6,N#Cc1cc(Cl)cc(Oc2c(C(F)(F)F)ccn(CC(=O)Nc3ccc(F)cc3)c2=O)c1,> 269
7,N#Cc1cc(Cl)cc(Oc2c(C(F)(F)F)ccn(CC(=O)Nc3cnccn3)c2=O)c1,> 183
8,N#Cc1cc(Cl)cc(Oc2c(C(F)(F)F)ccn(CC(=O)Nc3cccnc3)c2=O)c1,> 111
